Measurements published in US7118895B2, “Process for producing aglycon by using diglycosidase and flavor-improved food containing the aglycon and converting agent to be used in the process” (Amano Enzyme Inc., priority 2000, dated 2006).

Legend:
[1] = tested on: β-Glucosidase derived from A. niger; experiment: Reactivity toward various isoflavone glycosides (HPLC); type: biochemical, Aspergillus niger; parameters: glucoside / aglycon: unit not given here; details: 55 °C, pH 4.0
How it was run: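 Aglycone liberation was measured by reversed-phase HPLC (260 nm, calibration-curve quantitation) after ethanol extraction at 0, 1, 3 and 6 h. Reactions ran at 55° C, pH 4.0 (20 mM acetate), with each glycoside (from 2 mM methanol stock) and 0.75 AU/mL enzyme solution.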

Crude diglycosidase = experiment: Examination of substrate concentration in the conversion into isoflavone aglycons by diglycosidase using soybean materials; type: biochemical, Penicillium multicolor IAM7153;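 note: percent of the isoflavone family total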
How it was run: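 Reaction at 55° C, shaken, pH 4.0 (20 mM acetate), using crude diglycosidase from a 1.88 AU/mL enzyme solution on soy flour, soymilk, defatted soybean or soy protein concentrate at 2, 5, 10, 20 or 30% (w/v). Isoflavone aglycons quantified by HPLC of ethanol extracts at 0, 1, 3, 6 h.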

SMILES: O=c1c(-c2ccc(O)cc2)coc2cc(O[C@@H]3O[C@H](CO)[C@@H](O)[C@H](O)[C@H]3O)cc(O)c12 [genistin]
- reactivity of β-glucosidase derived from Aspergillus niger (in words) [1]: act well
- aglycon ([1]; Reaction time 0 h): 0
- glucoside ([1]; Reaction time 0 h): 100
- aglycon ([1]; Reaction time 1 h): 100
- glucoside ([1]; Reaction time 1 h): 0
- aglycon ([1]; Reaction time 3 h): 100
- glucoside ([1]; Reaction time 3 h): 0
- aglycon ([1]; Reaction time 6 h): 100
- glucoside ([1]; Reaction time 6 h): 0
- Decomposition efficiency: ratio of each glycoside/aglycon within its isoflavone family (Crude diglycosidase; concentrated soybean protein, substrate concentration 2%, heat treatment of enzyme no, reaction time 0 h): 50.5%
- Decomposition efficiency: ratio of each glycoside/aglycon within its isoflavone family (Crude diglycosidase; concentrated soybean protein, substrate concentration 2%, heat treatment of enzyme no, reaction time 1 h): 1.2%
- Decomposition efficiency: ratio of each glycoside/aglycon within its isoflavone family (Crude diglycosidase; concentrated soybean protein, substrate concentration 2%, heat treatment of enzyme no, reaction time 3 h): not detected
- Decomposition efficiency: ratio of each glycoside/aglycon within its isoflavone family (Crude diglycosidase; concentrated soybean protein, substrate concentration 2%, heat treatment of enzyme no, reaction time 6 h): not detected
- Decomposition efficiency: ratio of each glycoside/aglycon within its isoflavone family (Crude diglycosidase; concentrated soybean protein, substrate concentration 2%, heat treatment of enzyme yes, reaction time 6 h): 51.6%
- Decomposition efficiency: ratio of each glycoside/aglycon within its isoflavone family (Crude diglycosidase; concentrated soybean protein, substrate concentration 5%, heat treatment of enzyme no, reaction time 0 h): 51.2%
- Decomposition efficiency: ratio of each glycoside/aglycon within its isoflavone family (Crude diglycosidase; concentrated soybean protein, substrate concentration 5%, heat treatment of enzyme no, reaction time 1 h): not detected
- Decomposition efficiency: ratio of each glycoside/aglycon within its isoflavone family (Crude diglycosidase; concentrated soybean protein, substrate concentration 5%, heat treatment of enzyme no, reaction time 3 h): not detected
- Decomposition efficiency: ratio of each glycoside/aglycon within its isoflavone family (Crude diglycosidase; concentrated soybean protein, substrate concentration 5%, heat treatment of enzyme no, reaction time 6 h): not detected
- Decomposition efficiency: ratio of each glycoside/aglycon within its isoflavone family (Crude diglycosidase; concentrated soybean protein, substrate concentration 5%, heat treatment of enzyme yes, reaction time 6 h): 52.2%
- Decomposition efficiency: ratio of each glycoside/aglycon within its isoflavone family (Crude diglycosidase; concentrated soybean protein, substrate concentration 10%, heat treatment of enzyme no, reaction time 0 h): 50.6%
- Decomposition efficiency: ratio of each glycoside/aglycon within its isoflavone family (Crude diglycosidase; concentrated soybean protein, substrate concentration 10%, heat treatment of enzyme no, reaction time 1 h): 1.3%
- Decomposition efficiency: ratio of each glycoside/aglycon within its isoflavone family (Crude diglycosidase; concentrated soybean protein, substrate concentration 10%, heat treatment of enzyme no, reaction time 3 h): not detected
- Decomposition efficiency: ratio of each glycoside/aglycon within its isoflavone family (Crude diglycosidase; concentrated soybean protein, substrate concentration 10%, heat treatment of enzyme no, reaction time 6 h): not detected
- Decomposition efficiency: ratio of each glycoside/aglycon within its isoflavone family (Crude diglycosidase; concentrated soybean protein, substrate concentration 10%, heat treatment of enzyme yes, reaction time 6 h): 50.9%
- Decomposition efficiency: ratio of each glycoside/aglycon within its isoflavone family (Crude diglycosidase; concentrated soybean protein, substrate concentration 20%, heat treatment of enzyme no, reaction time 0 h): 50.4%
- Decomposition efficiency: ratio of each glycoside/aglycon within its isoflavone family (Crude diglycosidase; concentrated soybean protein, substrate concentration 20%, heat treatment of enzyme no, reaction time 1 h): 6.0%
- Decomposition efficiency: ratio of each glycoside/aglycon within its isoflavone family (Crude diglycosidase; concentrated soybean protein, substrate concentration 20%, heat treatment of enzyme no, reaction time 3 h): not detected
- Decomposition efficiency: ratio of each glycoside/aglycon within its isoflavone family (Crude diglycosidase; concentrated soybean protein, substrate concentration 20%, heat treatment of enzyme no, reaction time 6 h): not detected
- Decomposition efficiency: ratio of each glycoside/aglycon within its isoflavone family (Crude diglycosidase; concentrated soybean protein, substrate concentration 20%, heat treatment of enzyme yes, reaction time 6 h): 50.8%
- Decomposition efficiency: ratio of each glycoside/aglycon within its isoflavone family (Crude diglycosidase; concentrated soybean protein, substrate concentration 30%, heat treatment of enzyme no, reaction time 0 h): 54.6%
- Decomposition efficiency: ratio of each glycoside/aglycon within its isoflavone family (Crude diglycosidase; concentrated soybean protein, substrate concentration 30%, heat treatment of enzyme no, reaction time 1 h): 2.8%
- Decomposition efficiency: ratio of each glycoside/aglycon within its isoflavone family (Crude diglycosidase; concentrated soybean protein, substrate concentration 30%, heat treatment of enzyme no, reaction time 3 h): not detected
- Decomposition efficiency: ratio of each glycoside/aglycon within its isoflavone family (Crude diglycosidase; concentrated soybean protein, substrate concentration 30%, heat treatment of enzyme no, reaction time 6 h): not detected
- Decomposition efficiency: ratio of each glycoside/aglycon within its isoflavone family (Crude diglycosidase; concentrated soybean protein, substrate concentration 30%, heat treatment of enzyme yes, reaction time 6 h): 55.6%
- Decomposition efficiency: ratio of each glycoside/aglycon within its isoflavone family (Crude diglycosidase; roasted soy flour, substrate concentration 2%, heat treatment of enzyme no, reaction time 0 h): 33.2%
- Decomposition efficiency: ratio of each glycoside/aglycon within its isoflavone family (Crude diglycosidase; roasted soy flour, substrate concentration 2%, heat treatment of enzyme no, reaction time 1 h): not detected
- Decomposition efficiency: ratio of each glycoside/aglycon within its isoflavone family (Crude diglycosidase; roasted soy flour, substrate concentration 2%, heat treatment of enzyme no, reaction time 3 h): not detected
- Decomposition efficiency: ratio of each glycoside/aglycon within its isoflavone family (Crude diglycosidase; roasted soy flour, substrate concentration 2%, heat treatment of enzyme no, reaction time 6 h): not detected
- Decomposition efficiency: ratio of each glycoside/aglycon within its isoflavone family (Crude diglycosidase; roasted soy flour, substrate concentration 2%, heat treatment of enzyme yes, reaction time 6 h): 48.4%
- Decomposition efficiency: ratio of each glycoside/aglycon within its isoflavone family (Crude diglycosidase; roasted soy flour, substrate concentration 5%, heat treatment of enzyme no, reaction time 0 h): 47.8%
- Decomposition efficiency: ratio of each glycoside/aglycon within its isoflavone family (Crude diglycosidase; roasted soy flour, substrate concentration 5%, heat treatment of enzyme no, reaction time 1 h): not detected
- Decomposition efficiency: ratio of each glycoside/aglycon within its isoflavone family (Crude diglycosidase; roasted soy flour, substrate concentration 5%, heat treatment of enzyme no, reaction time 3 h): not detected
- Decomposition efficiency: ratio of each glycoside/aglycon within its isoflavone family (Crude diglycosidase; roasted soy flour, substrate concentration 5%, heat treatment of enzyme no, reaction time 6 h): not detected
- Decomposition efficiency: ratio of each glycoside/aglycon within its isoflavone family (Crude diglycosidase; roasted soy flour, substrate concentration 5%, heat treatment of enzyme yes, reaction time 6 h): 47.8%
- Decomposition efficiency: ratio of each glycoside/aglycon within its isoflavone family (Crude diglycosidase; roasted soy flour, substrate concentration 10%, heat treatment of enzyme no, reaction time 0 h): 59.5%
- Decomposition efficiency: ratio of each glycoside/aglycon within its isoflavone family (Crude diglycosidase; roasted soy flour, substrate concentration 10%, heat treatment of enzyme no, reaction time 1 h): not detected
- Decomposition efficiency: ratio of each glycoside/aglycon within its isoflavone family (Crude diglycosidase; roasted soy flour, substrate concentration 10%, heat treatment of enzyme no, reaction time 3 h): not detected
- Decomposition efficiency: ratio of each glycoside/aglycon within its isoflavone family (Crude diglycosidase; roasted soy flour, substrate concentration 10%, heat treatment of enzyme no, reaction time 6 h): not detected
- Decomposition efficiency: ratio of each glycoside/aglycon within its isoflavone family (Crude diglycosidase; roasted soy flour, substrate concentration 10%, heat treatment of enzyme yes, reaction time 6 h): 49.5%
- Decomposition efficiency: ratio of each glycoside/aglycon within its isoflavone family (Crude diglycosidase; roasted soy flour, substrate concentration 20%, heat treatment of enzyme no, reaction time 0 h): 50.5%
- Decomposition efficiency: ratio of each glycoside/aglycon within its isoflavone family (Crude diglycosidase; roasted soy flour, substrate concentration 20%, heat treatment of enzyme no, reaction time 1 h): not detected
- Decomposition efficiency: ratio of each glycoside/aglycon within its isoflavone family (Crude diglycosidase; roasted soy flour, substrate concentration 20%, heat treatment of enzyme no, reaction time 3 h): not detected
- Decomposition efficiency: ratio of each glycoside/aglycon within its isoflavone family (Crude diglycosidase; roasted soy flour, substrate concentration 20%, heat treatment of enzyme no, reaction time 6 h): not detected
- Decomposition efficiency: ratio of each glycoside/aglycon within its isoflavone family (Crude diglycosidase; roasted soy flour, substrate concentration 20%, heat treatment of enzyme yes, reaction time 6 h): 49.5%
- Decomposition efficiency: ratio of each glycoside/aglycon within its isoflavone family (Crude diglycosidase; roasted soy flour, substrate concentration 30%, heat treatment of enzyme no, reaction time 0 h): 49.4%
- Decomposition efficiency: ratio of each glycoside/aglycon within its isoflavone family (Crude diglycosidase; roasted soy flour, substrate concentration 30%, heat treatment of enzyme no, reaction time 1 h): 5.7%
- Decomposition efficiency: ratio of each glycoside/aglycon within its isoflavone family (Crude diglycosidase; roasted soy flour, substrate concentration 30%, heat treatment of enzyme no, reaction time 3 h): 9.6%
- Decomposition efficiency: ratio of each glycoside/aglycon within its isoflavone family (Crude diglycosidase; roasted soy flour, substrate concentration 30%, heat treatment of enzyme no, reaction time 6 h): 2.0%
- Decomposition efficiency: ratio of each glycoside/aglycon within its isoflavone family (Crude diglycosidase; roasted soy flour, substrate concentration 30%, heat treatment of enzyme yes, reaction time 6 h): 50.1%
- Decomposition efficiency: ratio of each glycoside/aglycon within its isoflavone family (Crude diglycosidase; soymilk, substrate concentration 2%, heat treatment of enzyme no, reaction time 0 h): 54.5%
- Decomposition efficiency: ratio of each glycoside/aglycon within its isoflavone family (Crude diglycosidase; soymilk, substrate concentration 2%, heat treatment of enzyme no, reaction time 1 h): not detected
- Decomposition efficiency: ratio of each glycoside/aglycon within its isoflavone family (Crude diglycosidase; soymilk, substrate concentration 2%, heat treatment of enzyme no, reaction time 3 h): not detected
- Decomposition efficiency: ratio of each glycoside/aglycon within its isoflavone family (Crude diglycosidase; soymilk, substrate concentration 2%, heat treatment of enzyme no, reaction time 6 h): not detected
- Decomposition efficiency: ratio of each glycoside/aglycon within its isoflavone family (Crude diglycosidase; soymilk, substrate concentration 2%, heat treatment of enzyme yes, reaction time 6 h): 38.0%
- Decomposition efficiency: ratio of each glycoside/aglycon within its isoflavone family (Crude diglycosidase; soymilk, substrate concentration 5%, heat treatment of enzyme no, reaction time 0 h): 31.5%
- Decomposition efficiency: ratio of each glycoside/aglycon within its isoflavone family (Crude diglycosidase; soymilk, substrate concentration 5%, heat treatment of enzyme no, reaction time 1 h): not detected
- Decomposition efficiency: ratio of each glycoside/aglycon within its isoflavone family (Crude diglycosidase; soymilk, substrate concentration 5%, heat treatment of enzyme no, reaction time 3 h): not detected
- Decomposition efficiency: ratio of each glycoside/aglycon within its isoflavone family (Crude diglycosidase; soymilk, substrate concentration 5%, heat treatment of enzyme no, reaction time 6 h): not detected
- Decomposition efficiency: ratio of each glycoside/aglycon within its isoflavone family (Crude diglycosidase; soymilk, substrate concentration 5%, heat treatment of enzyme yes, reaction time 6 h): 37.9%
- Decomposition efficiency: ratio of each glycoside/aglycon within its isoflavone family (Crude diglycosidase; soymilk, substrate concentration 10%, heat treatment of enzyme no, reaction time 0 h): 32.9%
- Decomposition efficiency: ratio of each glycoside/aglycon within its isoflavone family (Crude diglycosidase; soymilk, substrate concentration 10%, heat treatment of enzyme no, reaction time 1 h): not detected
- Decomposition efficiency: ratio of each glycoside/aglycon within its isoflavone family (Crude diglycosidase; soymilk, substrate concentration 10%, heat treatment of enzyme no, reaction time 3 h): not detected
- Decomposition efficiency: ratio of each glycoside/aglycon within its isoflavone family (Crude diglycosidase; soymilk, substrate concentration 10%, heat treatment of enzyme no, reaction time 6 h): not detected
- Decomposition efficiency: ratio of each glycoside/aglycon within its isoflavone family (Crude diglycosidase; soymilk, substrate concentration 10%, heat treatment of enzyme yes, reaction time 6 h): 37.6%
- Decomposition efficiency: ratio of each glycoside/aglycon within its isoflavone family (Crude diglycosidase; soymilk, substrate concentration 20%, heat treatment of enzyme no, reaction time 0 h): 33.3%
- Decomposition efficiency: ratio of each glycoside/aglycon within its isoflavone family (Crude diglycosidase; soymilk, substrate concentration 20%, heat treatment of enzyme no, reaction time 1 h): not detected
- Decomposition efficiency: ratio of each glycoside/aglycon within its isoflavone family (Crude diglycosidase; soymilk, substrate concentration 20%, heat treatment of enzyme no, reaction time 3 h): not detected
- Decomposition efficiency: ratio of each glycoside/aglycon within its isoflavone family (Crude diglycosidase; soymilk, substrate concentration 20%, heat treatment of enzyme no, reaction time 6 h): not detected
- Decomposition efficiency: ratio of each glycoside/aglycon within its isoflavone family (Crude diglycosidase; soymilk, substrate concentration 20%, heat treatment of enzyme yes, reaction time 6 h): 38.6%
- Decomposition efficiency: ratio of each glycoside/aglycon within its isoflavone family (Crude diglycosidase; soymilk, substrate concentration 30%, heat treatment of enzyme no, reaction time 0 h): 33.6%
- Decomposition efficiency: ratio of each glycoside/aglycon within its isoflavone family (Crude diglycosidase; soymilk, substrate concentration 30%, heat treatment of enzyme no, reaction time 1 h): not detected
- Decomposition efficiency: ratio of each glycoside/aglycon within its isoflavone family (Crude diglycosidase; soymilk, substrate concentration 30%, heat treatment of enzyme no, reaction time 3 h): not detected
- Decomposition efficiency: ratio of each glycoside/aglycon within its isoflavone family (Crude diglycosidase; soymilk, substrate concentration 30%, heat treatment of enzyme no, reaction time 6 h): not detected
- Decomposition efficiency: ratio of each glycoside/aglycon within its isoflavone family (Crude diglycosidase; soymilk, substrate concentration 30%, heat treatment of enzyme yes, reaction time 6 h): 38.6%
